The record followed here is US9790169B2, “IDO inhibitors” (BRISTOL-MYERS SQUIBB COMPANY, priority 2015, dated 2017).

Molecules are shown by their SMILES.

human IDO1, sequence (P14902 whole entry): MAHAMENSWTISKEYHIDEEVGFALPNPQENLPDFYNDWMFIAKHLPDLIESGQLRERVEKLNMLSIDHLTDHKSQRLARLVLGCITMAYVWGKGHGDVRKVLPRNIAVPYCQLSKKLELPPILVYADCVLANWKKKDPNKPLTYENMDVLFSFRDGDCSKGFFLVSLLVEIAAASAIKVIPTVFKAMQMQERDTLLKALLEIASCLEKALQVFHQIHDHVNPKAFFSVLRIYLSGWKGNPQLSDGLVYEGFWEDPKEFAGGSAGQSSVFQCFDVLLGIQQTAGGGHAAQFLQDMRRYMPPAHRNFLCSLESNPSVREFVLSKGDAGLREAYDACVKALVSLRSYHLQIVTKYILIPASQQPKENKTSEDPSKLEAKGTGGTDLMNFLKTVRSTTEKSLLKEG

For the experiment, the target named is human IDO1 (Homo sapiens, UniProt P14902). In words: Assessment of human IDO-1 inhibitory activity in Hela cells (Interferon-gamma stimulated HeLa cells, Ehrlich reagent, absorbance 490 nm). The class given is cell-based. Also on record: endogenous in cells; host or cells: HeLa cells stimulated with interferon-gamma. The note with it: Hela Human IDO-1 cellular assay. An outline of the steps:
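IDO activity induced by 18 h IFN-γ (human 10 ng/ml or murine 5 ng/ml, final) after 1 h compound pre-treatment of HeLa cells at 37 °C. Supernatant kynurenine detected via Ehrlich reagent absorbance at 490 nm following 3% TCA at 50 °C; IC50 set against no-IFN-γ and untreated-stimulated controls.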
The IC50 is the concentration at which inhibition is half-maximal. A lower IC50 goes with inhibition by little substance. `CCCN(c1ccc(C(COC)CC(=O)O)cc1Nc1ccc(F)cc1)C1CCS(=O)(=O)CC1` (single isomer, unassigned) [Example 184, 3-(4-((1,1-dioxidotetrahydro-2H-thiopyran-4-yl)(propyl)amino)-3-((4-fluorophenyl)amino)phenyl)-4-methoxybutanoic acid] had an IC50 of under 0.005 µM. The result for `CCC1COCCN1c1ccc([C@H](COC)CC(=O)O)cc1Nc1cnc(OC)nc1` (single isomer, unassigned) [Example 1290] reads over 0.05 µM. `CC[C@@H](CC(=O)O)c1ccc(N(CC)C2CCOCC2)c(Nc2ccc(C#N)cn2)c1` (single isomer, unassigned) [Example 461] gave an IC50 of under 0.005 µM. Compound `CCC(CC(=O)O)c1ccc(N2CC(O)(c3ccc(F)cc3)C2)c(Nc2ccc(C#N)cc2)c1` (single isomer, unassigned) [Example 1254, 3-(3-((4-cyanophenyl)amino)-4-(3-(4-fluorophenyl)-3-hydroxyazetidin-1-yl)phenyl)pentanoic acid] came in with an IC50 of under 0.05 µM. The compound `CC[C@H](CC(=O)O)c1ccc(N(CC)C2CCOCC2)c(Nc2ccc(S(=O)(=O)CC)cc2)c1` (single isomer, unassigned) [Example 525] showed an IC50 of under 0.05 µM. `CCC(CC(=O)O)c1ccc(N(CCOC)C2CCOCC2)c(NC(=O)Nc2ccc(C)cc2)c1` (single isomer, unassigned) [Example 1264 E1, 3-(4-((2-Methoxyethyl)(tetrahydro-2H-pyran-4-yl)amino)-3-(3-(p-tolyl)ureido)phenyl)pentanoic acid] returned an IC50 of over 0.05 µM. Take `CCOc1ncc(Nc2cc([C@H](CC)CNS(=O)(=O)CC)ccc2N(CC)C2CCOCC2)cn1` [Example 1325, (S)-N-(2-(3-((2-Ethoxypyrimidin-5-yl)amino)-4-(ethyl(tetrahydro-2H-pyran-4-yl)amino)phenyl)butyl)ethanesulfonamide]: the IC50 is under 0.05 µM. With `CCC(CC(=O)O)c1ccc(N2CCOC[C@H]2C(C)C)c(Nc2ccc(Cl)cc2)c1` (single isomer, unassigned) [Example 888], the IC50 is under 0.005 µM. The compound `CCOc1ncc(Nc2cc([C@H](CC)CC(N)=O)ccc2N(CC)C2CCOCC2)cn1` [Example 1332, (R)-3-(3-((2-Ethoxypyrimidin-5-yl)amino)-4-(ethyl(tetrahydro-2H-pyran-4-yl)amino)phenyl)pentanamide] registered an IC50 of over 0.05 µM. In the case of `CCN(c1ccc(C(CC(=O)O)C2CC2)cc1Nc1cnc(OC)nc1)C1CCOCC1` (single isomer, unassigned) [Example 35, 3-cyclopropyl-3-(4-(ethyl(tetrahydro-2H-pyran-4-yl)amino)-3-((2-methoxypyrimidin-5-yl)amino)phenyl)propanoic acid] it was under 0.05 µM; in that of `CCN(c1ccc(C(C)CC(=O)O)cc1Nc1cnc(OCC2CC2)nc1)C1CCOCC1` (single isomer, unassigned) [Example 626, 3-(3-((2-(cyclopropylmethoxy)pyrimidin-5-yl)amino)-4-(ethyl(tetrahydro-2H-pyran-4-yl)amino)phenyl)butanoic acid], under 0.05 µM; in that of `CCOc1ccc(Nc2cc([C@H](CC)CC(=O)O)ccc2N(CC)C2CCOCC2)cn1` (single isomer, unassigned) [Example 509], under 0.005 µM. For the compound `CCN(c1ccc([C@H](COC)CC(=O)O)cc1Nc1ccc(C(F)(F)F)cc1)C1CCOCC1` [Example 401], the concentration for half-maximal inhibition (IC50) is under 0.005 µM. For the compound `COCC(CC(=O)O)c1ccc(N2CCOC[C@H]2C(C)C)c(NC(=O)Nc2ccc(C#N)cc2)c1` (single isomer, unassigned) [Example 911], the IC50 was over 0.05 µM. `CCN(c1ccc([C@@H](COC)CC(=O)O)cc1Nc1ccccc1C#N)C1CCOCC1` (single isomer, unassigned) [Example 369]: the IC50 is over 0.05 µM. As for `CCOc1ncc(Nc2cc(C(CC)(CC)CC(=O)O)ccc2N(CC)C2CCOCC2)cn1` [Example 29, 3-(3-((2-ethoxypyrimidin-5-yl)amino)-4-(ethyl(tetrahydro-2H-pyran-4-yl)amino)phenyl)-3-ethylpentanoic acid], the concentration for half-maximal inhibition (IC50) is under 0.005 µM. With `CCC(CC(=O)O)c1ccc(N2CCN(C(=O)OC)CC2)c(Nc2ccc(C#N)cc2)c1` (single isomer, unassigned) [Example 668 Enantiomer 1, 3-(3-((4-Cyanophenyl)amino)-4-(4-(methoxycarbonyl)piperazin-1-yl)phenyl)pentanoic acid], the IC50 is over 0.05 µM.

As to `CCN(c1c(F)cc(C(COC)CC(=O)O)cc1Nc1ccc(C#N)cc1)C1CCOCC1` (single isomer, unassigned) [Example 918, 3-(3-((4-Cyanophenyl)amino)-4-(ethyl(tetrahydro-2H-pyran-4-yl)amino)-5-fluorophenyl)-4-methoxybutanoic acid], the IC50 is under 0.05 µM. The result for `CCOc1ccc(Nc2cc([C@@H](CC)CC(=O)O)ccc2N(CC)C2CCOCC2)cn1` (single isomer, unassigned) [Example 466] reads under 0.005 µM. As for `CCN(c1ccc([C@@H](COC)CC(=O)O)cc1Nc1ccc(C#N)cc1F)C1CCOCC1` (single isomer, unassigned) [Example 355], the IC50 is under 0.005 µM.

In turn, `COCC(CC(=O)O)c1ccc(N2CCOC[C@H]2C(C)C)c(Nc2ccc(C#N)cc2)c1` (single isomer, unassigned) [Example 909] returned an IC50 of under 0.05 µM. In turn, `CCCN(c1ccc([C@H](COC)CC(=O)O)cc1Nc1cnc(OCC2CC2)nc1)C1CCOCC1` (single isomer, unassigned) [Example 573] showed an IC50 of under 0.05 µM. In turn, `CCN(c1ccc(C(CC(=O)O)C2CC2)cc1NC(=O)Nc1ccc(C)cc1)C1CCOCC1` (single isomer, unassigned) [Example 40 Enantiomer 2, 3-Cyclopropyl-3-(4-(ethyl(tetrahydro-2H-pyran-4-yl)amino)-3-(3-(p-tolyl)ureido)phenyl)propanoic acid] came in with an IC50 of under 0.05 µM.

In the case of `CCCN(c1ccc([C@H](CC)CC(=O)O)cc1Nc1cnc(OCC)nc1)C1CCOCC1` (single isomer, unassigned) [Example 546], the IC50 was under 0.005 µM. `COCC(CC(=O)O)c1ccc(N2CCOC(C)C2)c(Nc2ccc(C#N)cc2)c1` (single isomer, unassigned) [Example 1312, 3-(3-((4-cyanophenyl)amino)-4-(2-methylmorpholino)phenyl)-4-methoxybutanoic acid] had an IC50 of over 0.05 µM. `CC[C@H](CC(=O)O)c1ccc(N(CC)C2CCOCC2)c(Nc2ccc(OC)cn2)c1` (single isomer, unassigned) [Example 505] came in with an IC50 of under 0.05 µM.

Regarding `CCCN(c1ccc([C@@H](COC)CC(=O)O)cc1NC(=O)Nc1ccc(C#N)cc1)C1CCOCC1` (single isomer, unassigned) [Example 567], the IC50 is under 0.05 µM. `CCN(c1ccc([C@@H](COC)CC(=O)O)cc1Nc1ccc(C#N)cc1C)C1CCOCC1` (single isomer, unassigned) [Example 367] showed an IC50 of under 0.05 µM. Take `CCOc1ccc(Nc2cc([C@H](CC)CC(=O)O)ccc2N(CC)C2CCOCC2)nn1` (single isomer, unassigned) [Example 510]: the IC50 is under 0.005 µM.
